Measured values reported in US8802679B2, “Glycine compound” (Astellas Pharma Inc., priority 2009, dated 2014).
Counter-ions that a name gives are not always drawn.

Key:
[1] = target: human VAP-1 enzyme (SSAO) (Homo sapiens (Human), UniProt Q16853); assay: Inhibitory effect on human VAP-1 enzyme (SSAO) activity, radiochemistry-enzymatic assay with 14C-benzylamine; assay type: biochemical; conditions: enzyme from CHO cells expressing human VAP-1; 14C-benzylamine 1×10^−5 mol/L
Description: Inhibitory Effect of Compound on Human VAP-1 Enzyme (SSAO) Activity
(§1) A human VAP-1 enzyme (SSAO) activity was measured by a radiochemistry-enzymatic assay using ^14C-benzylamine as an artificial substrate. An enzyme suspension prepared from CHO (Chinese Hamster Ovary) cells stably expressing a human VAP-1 enzyme (SSAO) was preincubated with the compound of the present invention in a 96-well microplate at room temperature for 30 minutes. Subsequently, the enzyme suspension was incubated with ^14C-benzylamine (a final concentration of 1×10^−5 mol/L) to a final volume of […] at 37° C. for 1 hour. The enzymatic reaction was stopped by the addition of 2 mol/L (50 μL) of citric acid. The oxidation products were extracted directly in a 200-μL toluene scintillator, and the radioactivity was measured with a scintillation spectrometer.
(§2) In addition, the inhibitory activity is expressed in IC50 (nmol/L).

rat VAP-1 enzyme (SSAO) = rat VAP-1 enzyme (SSAO) (Rattus norvegicus (Rat), UniProt O08590); assay: Inhibitory effect on rat VAP-1 enzyme (SSAO) activity, radiochemistry-enzymatic assay with 14C-benzylamine; assay type: biochemical; conditions: enzyme from CHO cells expressing rat VAP-1; 14C-benzylamine 1×10^−5 mol/L
Description: Inhibitory Effect of Compound on Rat VAP-1 Enzyme (SSAO) Activity
as §1, with “rat VAP-enzyme 1” for “human VAP-1 enzyme”
as §2

[2] = tested on: VAP-1 enzyme activity in plasma; assay: Plasma VAP-1 enzyme activity after oral administration to rats (radio-enzyme assay); assay type: in vivo, Wistar male rats; conditions: rat, oral 1 mg/kg; for Inhibition Ratio (%) of plasma VAP-1 activity, 1 h: 1 h after administration; for Inhibition Ratio (%) of plasma VAP-1 activity, 3 h: 3 h after administration; for Inhibition Ratio (%) of plasma VAP-1 activity, 6 h: 6 h after administration; for Inhibition Ratio (%) of plasma VAP-1 activity, 12 h: 12 h after administration
Description: Eight-week to twelve-week Wistar male rats were fasted for 20 hours, and orally administered with a test drug (1 mg/1 kg). Heparin blood collection from the tail vein was performed immediately before the administration, and at 1 h, 3 h, 6 h, and 12 h after the administration. The resulting blood was subjected to centrifugation at 14000 rpm for 5 minutes to separate plasma, and the VAP-1 enzyme activity in the resulting plasma was measured by a radio-enzyme assay method.
For the radio-enzyme assay method, ^14C-benzylamine which is a synthetic substrate (10 μM) was reacted with the resulting plasma at 37° C., and the resulting metabolite was extracted with a mixture of toluene/ethyl acetate. The radioactivity was measured and taken as a VAP-1 enzyme activity in the plasma. The effect of the test drug was calculated from the ratio (%) of the VAP-1 activity after the administration of the test drug relative to the VAP-1 activity in the plasma immediately before the administration (100%).

Chain of rat VAP-1 enzyme (SSAO) (O08590 whole entry): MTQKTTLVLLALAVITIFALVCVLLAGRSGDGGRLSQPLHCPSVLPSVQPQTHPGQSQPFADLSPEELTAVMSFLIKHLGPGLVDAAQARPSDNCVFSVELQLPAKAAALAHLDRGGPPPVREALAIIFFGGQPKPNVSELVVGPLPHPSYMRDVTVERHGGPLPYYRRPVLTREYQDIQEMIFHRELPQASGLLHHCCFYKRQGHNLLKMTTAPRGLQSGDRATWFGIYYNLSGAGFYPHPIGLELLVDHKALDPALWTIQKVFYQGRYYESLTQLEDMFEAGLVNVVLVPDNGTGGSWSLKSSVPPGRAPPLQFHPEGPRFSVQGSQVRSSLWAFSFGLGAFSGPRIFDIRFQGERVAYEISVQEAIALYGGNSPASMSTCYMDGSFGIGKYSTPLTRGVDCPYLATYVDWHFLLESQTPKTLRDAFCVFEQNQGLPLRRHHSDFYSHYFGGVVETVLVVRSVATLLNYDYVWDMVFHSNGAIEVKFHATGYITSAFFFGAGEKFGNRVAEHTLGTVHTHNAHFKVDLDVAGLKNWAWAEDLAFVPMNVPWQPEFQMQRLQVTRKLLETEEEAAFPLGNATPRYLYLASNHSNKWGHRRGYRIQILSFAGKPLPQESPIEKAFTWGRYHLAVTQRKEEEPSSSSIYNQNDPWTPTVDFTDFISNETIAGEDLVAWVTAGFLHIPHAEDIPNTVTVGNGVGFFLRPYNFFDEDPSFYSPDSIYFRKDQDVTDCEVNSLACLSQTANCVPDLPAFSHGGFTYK
Chain of human VAP-1 enzyme (SSAO) (Q16853 whole entry): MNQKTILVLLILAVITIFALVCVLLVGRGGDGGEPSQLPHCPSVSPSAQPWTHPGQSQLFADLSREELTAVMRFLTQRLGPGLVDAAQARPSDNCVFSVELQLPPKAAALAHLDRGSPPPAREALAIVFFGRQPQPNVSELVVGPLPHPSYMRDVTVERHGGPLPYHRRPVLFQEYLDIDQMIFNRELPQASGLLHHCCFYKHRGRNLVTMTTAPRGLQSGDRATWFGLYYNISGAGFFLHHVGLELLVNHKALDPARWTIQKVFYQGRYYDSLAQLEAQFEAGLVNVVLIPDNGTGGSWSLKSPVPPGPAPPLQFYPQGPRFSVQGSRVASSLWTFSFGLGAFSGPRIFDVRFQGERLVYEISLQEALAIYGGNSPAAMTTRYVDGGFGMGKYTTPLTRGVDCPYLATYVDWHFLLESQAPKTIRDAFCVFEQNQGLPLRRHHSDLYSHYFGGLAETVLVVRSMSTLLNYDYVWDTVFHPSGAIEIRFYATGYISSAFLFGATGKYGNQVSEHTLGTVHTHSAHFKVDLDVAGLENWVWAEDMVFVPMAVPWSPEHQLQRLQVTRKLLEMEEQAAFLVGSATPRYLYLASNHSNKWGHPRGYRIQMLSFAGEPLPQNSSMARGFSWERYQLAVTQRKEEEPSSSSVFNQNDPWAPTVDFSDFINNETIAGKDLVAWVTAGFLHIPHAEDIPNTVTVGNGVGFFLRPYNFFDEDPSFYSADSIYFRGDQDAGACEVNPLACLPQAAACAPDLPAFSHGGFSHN

SMILES	IC50 [1] [µM]	IC50 (rat VAP-1 enzyme (SSAO)) [µM]	Inhibition Ratio (%) of plasma VAP-1 activity, 1 h [2] [%]	Inhibition Ratio (%) of plasma VAP-1 activity, 3 h [2] [%]	Inhibition Ratio (%) of plasma VAP-1 activity, 6 h [2] [%]	Inhibition Ratio (%) of plasma VAP-1 activity, 12 h [2] [%]
Cc1nc2c(s1)CN(c1ncc(-c3cccc(CN(C)C(=O)CN)c3)cn1)CC2 [Ex 102]	0.02	0.012	65	62	71	40
CN(Cc1cccc(-c2cnc(N3CC=C(c4cccnc4)CC3)nc2)c1)C(=O)CN [Ex 191]	0.007	0.014	35	43	48	20
Cc1cc(CCC(=O)O)cnc1N1CCN(c2ncc(-c3cccc(CN(C)C(=O)CN)c3)cn2)CC1 [Ex 66]	–	–	78	81	74	67
Cc1cc(/C=C/C(=O)O)cnc1N1CCN(c2ncc(-c3cccc(CN(C)C(=O)CN)c3)cn2)CC1 [Example 19, (2E)-3-(6-{-4-[5-(3-{[glycyl(methyl)amino]methyl}phenyl)pyrimidin-2-yl]piperazin-1-yl}-5-methylpyridin-3-yl)acrylic acid dihydrochloride]	0.0069	0.0069	84	79	75	63
CN(Cc1cccc(-c2cnc(N3CCC(O)CC3)nc2)c1)C(=O)CN [Ex 84]	0.14	0.015	16	20	17	–
CN(Cc1cccc(-c2cnc(N3CCN(c4ncccc4Cl)CC3)nc2)c1)C(=O)CN [Ex 147]	0.072	0.044	70	79	75	66
C[C@@H]1CN(c2ncc(-c3cccc(CN(C)C(=O)CN)c3)cn2)C[C@H](C)O1 [Ex 78]	–	–	31	18	3	−4
Cc1ncccc1N1CCN(c2ncc(-c3cccc(CN(C)C(=O)CN)c3)cn2)CC1 [Ex 91]	0.018	0.012	68	68	68	44
CN(Cc1cccc(-c2cnc(N3CCC(c4cccnc4)CC3)nc2)c1)C(=O)CN [Ex 190]	0.023	0.019	42	48	41	11
CN(Cc1cccc(-c2cnc(N3CCCC3)nc2)c1)C(=O)CN [Ex 75]	0.049	0.0036	78	58	38	24
CN(Cc1cccc(-c2cnc(N3CCOCC3)nc2)c1)C(=O)CN [Example 69, N-methyl-N-[3-(2-morpholin-4-ylpyrimidin-5-yl)benzyl]glycinamide L-tartrate]	0.032	0.0098	72	56	39	24
CN(Cc1cccc(-c2cnc(N3CCOC(CO)C3)nc2)c1)C(=O)CN (stereo not shown) [Ex 79]	0.066	0.034	24	21	15	14
CN(Cc1cccc(-c2cnc(N3Cc4cccnc4C3)nc2)c1)C(=O)CN [Ex 95]	0.011	0.0058	70	67	71	21
C[C@@H]1CN(c2ccc(-c3cccc(CN(C)C(=O)CN)c3)cn2)C[C@H](C)O1 [Ex 80]	0.081	0.039	48	43	26	21

Second part, led by results:

IC50 [1] [µM]	IC50 (rat VAP-1 enzyme (SSAO)) [µM]	SMILES	Inhibition Ratio (%) of plasma VAP-1 activity, 1 h [2] [%]	Inhibition Ratio (%) of plasma VAP-1 activity, 3 h [2] [%]	Inhibition Ratio (%) of plasma VAP-1 activity, 6 h [2] [%]	Inhibition Ratio (%) of plasma VAP-1 activity, 12 h [2] [%]
0.017	0.021	CN(Cc1cccc(-c2cnc(N3CCN(c4ccc(C#N)nc4)CC3)nc2)c1)C(=O)CN [Example 261, N-(3-{2-[4-(6-cyanopyridin-3-yl)piperazin-1-yl]pyrimidin-5-yl}benzyl)-N-methylglycinamide L-tartrate]	36	44	45	32
0.018	0.01	CN(Cc1cccc(-c2cnc(N3CCN(c4ncc(C(=O)O)cc4Cl)CC3)nc2)c1)C(=O)CN [Example 32]	68	70	58	45
0.025	0.015	CN(Cc1cccc(-c2cnc(N3CCN(c4ccc(C(=O)O)cc4Cl)CC3)nc2)c1)C(=O)CN [Example 263, 3-chloro-4-{4-[5-(3-{[glycyl(methyl)amino)methyl}phenyl)pyrimidin-2-yl]piperazin-1-yl}benzoic acid dihydrochloride]	97	95	80	75
0.09	0.04	CN(Cc1cccc(-c2cnc(N3CCS(=O)(=O)CC3)nc2)c1)C(=O)CN [Ex 216]	25	−7	15	25
0.049	0.0074	CN(Cc1cccc(-c2cnc(N3CC[C@H](F)C3)nc2)c1)C(=O)CN [Example 16]	83	83	53	42
0.031	0.021	CN(Cc1cccc(-c2cnc(N3CCN(c4ncc(/C=C/C(=O)O)cc4Cl)CC3)nc2)c1)C(=O)CN [Example 33]	84	87	97	83
0.032	0.022	Cc1cccnc1N1CCN(c2ncc(-c3cccc(CN(C)C(=O)CN)c3)cn2)CC1 [Example 3, N-methyl-N-(3-{2-[4-(3-methylpyridin-2-yl)piperazin-1-yl]pyrimidin-5-yl}benzyl)glycinamide L-tartrate]	65	77	71	47
0.048	0.021	CN(Cc1cccc(-c2cnc(N3CCC(N4CCOCC4)CC3)nc2)c1)C(=O)CN [Example 51]	30	37	43	32
